# Data reported in patent US20260007601A1, “IONIZABLE CATIONIC LIPID COMPOUND AND COMPOSITION FOR DELIVERING NUCLEIC ACID AND USE THEREOF” (BEIJING YOUCAREKECHUANG PHARMACEUTICAL TECHNOLOGY CO., LTD., priority 2023, published 2026).
# Several values for one entry are separate records, joined by “and”; a condition that tells them apart may be missing. Equal entries are not always repeated.
# Experiments:
# [1] = Encapsulation rate, drug loading concentration and total RNA concentration detection (RiboGreen); format: physicochemical; conditions: for Drug loading concentration / Encapsulation rate / Total RNA concentration: LNP formulation of the named lipid; for encapsulation rate higher than that of ALC-0315 / encapsulation rate higher than that of HHMA / encapsulation rate higher than that of SM-102 / encapsulation rate higher than that of YK-009 / encapsulation rate higher than that of compound 21 / encapsulation rate higher than that of compound 23: difference of rates
# [2] = system: 293T cells; experiment: Cell transfection experiment of LNP formulation of eGFP-mRNA (optimization of preparation conditions); format: cell-based; conditions: 0.5% to 15% tested
# Experimental: The cationic lipid compound YK-202 synthesized in Example 1, DSPC (AVT (Shanghai) Pharmaceutical Technology Co., Ltd.), cholesterol (AVT (Shanghai) Pharmaceutical Technology Co., Ltd.) and DMG-PEG2000 were dissolved in ethanol at a molar ratio of 49:10:39.5:1.5 to prepare an ethanol lipid solution. The ethanol lipid solution was quickly added to a citrate buffer (pH=4 to 5) by ethanol injection method and vortexed for 30 seconds for use. eGFP-mRNA was diluted in a citrate buffer (pH=4 to 5) to obtain an mRNA aqueous solution. […]
# Plating: The cells in the culture dish were digested, counted, plated in a 96-well plate at 10,000 cells per well, or in a 12-well plate at 150,000 cells per well, and cultured overnight until the cells adhered to the wall.
# Cell transfection experiment: The LNP formulation containing 1.5 μg of eGFP-mRNA prepared in Example 2 (the cationic lipid in the carrier was YK-202) and Lipofectamin 3000 formulation of eGFP-mRNA were added to the cell culture medium in a 12-well plate, and the cells were cultured for 24 hours. The transfection efficiency of different samples was investigated by fluorescence microscopy based on the fluorescence intensity.
Compound,"drug loading concentration, times that of ALC-0315 [1] [times]","drug loading concentration, times that of HHMA [1] [times]","drug loading concentration, times that of SM-102 [1] [times]","drug loading concentration, times that of YK-009 [1] [times]","drug loading concentration, times that of compound 21 [1] [times]","drug loading concentration, times that of compound 23 [1]","total RNA concentration, times that of ALC-0315 [1] [times]","total RNA concentration, times that of HHMA [1] [times]","total RNA concentration, times that of SM-102 [1] [times]","total RNA concentration, times that of YK-009 [1] [times]","total RNA concentration, times that of compound 21 [1]","total RNA concentration, times that of compound 23 [1] [times]",Drug loading concentration [1] [µg/mL],Encapsulation rate [1] [%],Total RNA concentration [1] [µg/mL],encapsulation rate higher than that of ALC-0315 [1] [%],encapsulation rate higher than that of HHMA [1] [%],encapsulation rate higher than that of SM-102 [1] [%],encapsulation rate higher than that of YK-009 [1] [%],encapsulation rate higher than that of compound 21 [1] [%],further results
"CCCCCCCCC(CCCCCCCC)COC(=O)CCCCCN(CCCCCC(=O)OCC(CCCCCCCC)CCCCCCCC)CCN(C)CCO [YK-209, bis(2-octyldecyl)-6,6′-((2-(2-hydroxyethyl(methyl)amino)ethyl)azadialkyl)dihexanoate]",1.60,1.36,1.64,1.55,1.85,2.02 times and 2 times,1.17,1.15,1.23,1.12,1.41 times,1.34,41.76,96.2,43.42,33.40,35.70,33.90,33.20,38.40,encapsulation rate higher than that of compound 23 [1]: 41%
CCCCCCCCCCCOC(=O)CCCCCN(CCCCCCCC(=O)OCC(CCCCCCCC)CCCCCCCC)CCN(C)CCO [YK-202],1.42,1.21,1.46,1.38,1.64,1.79 times,1.16,1.14,1.22,1.11,1.40 times,1.32,37.08,86.3,42.98,23.50,25.80,24.00,23.30,28.50,encapsulation rate higher than that of compound 23 [1]: 31.10%; molar ratio of polymer-conjugated lipid DMG-PEG2000 to carrier with the highest transfection efficiency [2]: 1.5%
"CCCCCCCCCCCOC(=O)CCCCCN(CCCCCCCC(=O)OC(CCCCCCCC)CCCCCCCC)CCN(C)CCO [YK-201, heptadecan-9-yl-8-(2-((2-hydroxyethyl)(methylamino))ethyl)(6-oxo-6-((undecanyloxy)hexyl)amino)octanoate]",1.55,1.32,1.58,1.50,1.78,1.95 times,1.21,1.19,1.28,1.17,1.47 times and 1.5 times,1.39,40.32,89.5,45.07,26.70,29.00,27.20,26.50,31.70,encapsulation rate higher than that of compound 23 [1]: 34.30%
